The results in this text go back to publication PMC8868285, “Pharmacological Inhibition of Epac1 Averts Ferroptosis Cell Death by Preserving Mitochondrial Integrity” (Antioxidants, 2022).

Molecules are shown by their SMILES.

Test [1] deals with HT-22 cells. The test is described as follows: Mitochondrial morphology (MitoTracker Deep Red, categories I-III). The class given is cell-based, mouse. How it is done: Mitochondrial morphology was assessed using imaging of HT-22 cells stained with MitoTracker™Deep Red FM (Invitrogen, Oregon City, OR, USA, #M22426). Cells were treated with either erastin 1 µM, CE3F4 100 µM, or co-treated with erastin 1 µM and CE3F4 100 μM for 18 h. After the treatment, cells were incubated with 200 nM MitoTracker™Deep Red FM for 30 min at 37 °C. Untreated cells were included as controls. 4% paraformaldehyde (PFA) was used for fixation and detection of the MitoTracker fluorescence was achieved by 620 nm (excitation) and 700 ± 75 nm (detection). 500 cells per condition were counted and grouped into three different categories, based on their mitochondrial morphology/shape. The analysis and categorization of mitochondria was done by an investigator without previous knowledge of the various experimental conditions. Category I included healthy cells with mitochondria that form an elongated tubular network that is distributed equally throughout the cytosol. It could also include short mitochondria, but distributed in the cytosol. On the other hand, Category II included cells which contained large, and fragmented/granulated mitochondria around the nucleus. […] Category III represented damaged and dying cells with observed small rounded mitochondria of varying sizes and in proximity to the nucleus.. At least three independent experiments were performed.

Test [2] relates to HT-22 cells. In words: Cell death assessment, FACS analysis of PI staining.
Procedure: (§1) Flow cytometry analysis using the CytoFLEXS benchtop flow cytometer (Beckman Coulter Life Sciences, Indianapolis, IN, USA) was used to evaluate intracellular parameters that are associated with not only oxidative stress but also mitochondrial dysfunction, and cell death. HT-22 cells (40,000 cells/well) seeded in 24-well plates were treated with various conditions. Treatment groups included: control condition (DMSO 1%), erastin 1 µM or 1.5 µM, CE3F4 100 µM, and co-treatment of erastin and CE3F4. Three separate wells were analyzed for each condition and the same number of counts (10,000/well) were measured by flow cytometry. At least three independent experiments were performed, and the Kaluza Analysis 1.5 software was employed for quantification of data.
The amount of cell death after stimulation with erastin for 16–17 h was assessed by incubating trypsonized HT-22 cell suspension with propidium iodide (PI) (Invitrogen, Oregon City, OR, USA, #V13242, Lot #2008168) in a binding buffer. Incubation with the dye was for 30 min at RT. Fluorescence was detected at 494/518 and 535/617 for FITC and PI respectively.
For test [3], the system named is HT-22 cells. In words: Extracellular flux analysis (Seahorse), oxygen consumption rate. It is filed as cell-based, mouse. How it is done: Cellular Oxygen Consumption Rate (OCR) was measured by using an XFe96 extracellular flux analyzer (Seahorse Bioscience, Billerica, MA, USA) which also entailed the mitochondrial stress test as described previously. HT-22 cells (10,000 cells/well) were seeded onto the XFe96-well cell culture microplate and incubated at 37 °C, 5% CO2. 24 h before the assay, the growth medium was replaced with a fresh medium containing either DMSO 1%, erastin 1 µM, CE3F4 alone, ESI-05 alone or a co-treatment of erastin with either CE3F4 or ESI-05. Cells in 180 μL of assay non-buffered DMEM medium supplemented with 2 mM glutamine, 4.5 g/L glucose and 1 mM pyruvate, pH 7.35 were incubated for 1 h in a CO2 free incubator at 37 °C. Basal respiration was measured before injecting the inhibitors that included; oligomycin (4 μM; port A)—an ATP synthase inhibitor; 2,4-dinitrophenol (DNP) (Sigma–Aldrich Chemie GmbH, Steinheim, Germany, #34334) (50 μM; port B)—a mitochondrial oxidative phosphorylation uncoupler; and rotenone (Sigma–Aldrich Chemie GmbH, Steinheim, Germany, #R8875) together with antimycin A (Sigma–Aldrich Chemie GmbH, Steinheim, Germany, #A8674) 0.1 μM and 1 μM; port C)—complex I and complex III inhibitors. By using the BCA assay, OCR measurements were normalized to the protein amount in every well. Three independent experiments with six wells per condition were performed, and a one-way ANOVA test was used to determine statistical significance among different groups.

The subject of test [4] is HT-22 cells. The test is described as follows: Mitochondrial superoxide, MitoSOX FACS.
Procedure: as §1
MitoSOX dye (Invitrogen, Oregon City, OR, USA, #M36008, Lot#1924466) was used to evaluate mitochondrial ROS. The MitoSOX dye is able to permeate live cells and also selectively target mitochondria where it is swiftly oxidized by superoxides but not by other reactive oxygen species. […] Incubation of HT-22 cells with MitoSOX™ 1.25 μM dye was done for 30 min at 37 °C. Fluorescence excitation and detection were done at 488 nm and 690/50 nm respectively.
Test [5] concerns HT-22 cells. In words: Lipid peroxidation, BODIPY FACS. The note with it: 100 μM CE3F4 + erastin 1 μM.
Procedure: as §1
The staining dye BODIPY 2 μM (Invitrogen, Karlsruhe, Germany, # D3861, Lot # 1890330) was used to estimate lipid peroxidation. Erastin treatment was done for 4 h. HT-22 cells were then stained for 30 min at RT, followed by a one-time wash with PBS and finally analyzed. Fluorescence excitation and detection were done at 488 nm and 530 nm respectively.
Test [6] has as its system HT-22 cells. The test is described as follows: Mitochondrial membrane potential, TMRE FACS. The settings on record: for effect on erastin-induced ΔΨm loss: no significant difference to control.
Procedure: as §1
Staining with TMRE™ dye (tetramethylrhodamine-ethyl ester; Invitrogen, Oregon City, OR, USA, #T669) was used to determine loss of mitochondrial membrane potential (MMP) (ΔΨm). […] Collected cells were incubated for 20 min with TMRE 0.2 μM at 37 °C. Fluorescence excitation and detection were done at 488 nm 690/50 nm respectively.
Setting [7] is: CE3F4 + erastin 1 μM vs erastin alone.

On to `CC1CCc2c(cc(Br)c(F)c2Br)N1C=O` (centres unmarked) [CE3F4], for which the “mitochondrial morphology, category III” value in the test on HT-22 cells [1] (30 µM CE3F4 + erastin 1 μM vs erastin alone) is “significant decrease of category III mitochondrial fragmentation”. Further, the mitochondrial morphology result was “completely abolished the effects of erastin on mitochondrial morphology” in the test with HT-22 cells [1] (100 μM CE3F4 + erastin 1 μM) and “did not alter mitochondrial morphology” in the test on HT-22 cells [1] (CE3F4 alone (100 µM)). Also, the “effect on erastin-induced cell death (PI staining)” value with HT-22 cells [2] (co-treatment 30 μM CE3F4 + erastin 1 μM) and with HT-22 cells [2] (co-treatment 100 μM CE3F4 + erastin 1 μM) was “markedly attenuated” in each case. Moreover, in the test on HT-22 cells [3] (100 μM CE3F4 alone), the maximal respiration result is “increased maximal respiration”. Also, in the test on HT-22 cells [3] (setting [7]), the “ATP-linked OCR” value is “did not reach statistical significance”. Besides, in the test on HT-22 cells [3] (setting [7]), the “basal OCR” value is “did not reach statistical significance”. Moreover, the “maximal OCR” value in the test on HT-22 cells [3] (setting [7]) is on record as “significantly increased”. Besides, the mitochondrial superoxide levels entry in the test on HT-22 cells [4] (30 μM CE3F4 alone) is on record as “shift towards the intermediate mitochondrial superoxide”. The “mitochondrial superoxide levels (intermediate)” value with HT-22 cells [4] (100 μM CE3F4 alone, compared with 30 μM) is “further increased”. Further, the “effect on erastin-mediated mitochondrial superoxide levels” value in the test with HT-22 cells [4] (CE3F4 30 μM + erastin 1 μM) was “did not affect erastin-mediated effects on mitochondrial superoxide levels”; in the test on HT-22 cells [4] (CE3F4 100 μM + erastin) it was “significantly attenuated the increase in high mitochondrial superoxide levels”. In the test on HT-22 cells [5], the “effect on erastin-induced lipid peroxidation” value was “significantly attenuated”. In addition, the “effect on erastin-induced ΔΨm loss” value in the test on HT-22 cells [6] (100 µM CE3F4 + erastin 1 μM) and with HT-22 cells [6] (100 µM CE3F4 + erastin 1.5 μM) was “significantly attenuated ΔΨm loss” throughout. For the same molecule, in the test on HT-22 cells [6] (CE3F4 alone), the “mitochondrial membrane potential (ΔΨm)” value is listed as “slight hyperpolarization”.
